According to patent publication US20230322717A1, “SOLID FORM OF PYRAZINE SUBSTITUTED NICOTINAMIDE, AND PREPARATION AND USE THEREOF” (Shenzhen TargetRx, Inc., priority 2020, published 2023):

What was measured:
Assay type in all cases: physicochemical
[1] = Stability study of the crystal form I of compound A and the crystal form I of compound A p-toluenesulfonate (HPLC, XRPD)
Description: A certain amount of samples of the crystal form I of compound A and the crystal form I of compound A p-toluenesulfonate (Batch No.: PTSA-A1) were placed in a stability test chamber, and kept at 40° C./75%RH and 60° C. for 7 days, respectively. The samples were tested by HPLC and XRPD at various time points.

[2] = Solubility study in SGF, FaSSIF and FeSSIF (HPLC of filtrate, XRPD of solid); conditions: 37° C.; for Crystal form: XRPD of solid
Description: The solubilities of the crystal form I of compound A and the crystal form I of compound A p-toluenesulfonate in SGF (simulated gastric fluid), FaSSIF (fasted state simulated intestinal fluid) and FeSSIF (fed state simulated intestinal fluid) were studied.
The solubilities of samples in SGF, FaSSIF and FeSSIF at 37° C. for 24 hours were determined. 40 mg of the sample was placed in a sample bottle, and 1.5 mL of solvent was added. The mixture was mixed well, and shaken on a shaker at 200 rpm for 24 hours. The suspension was filtered at 0.5, 2 and 24 hours. The filtrate was analyzed by HPLC, and the solid was tested by XRPD.

[3] = Dynamic moisture adsorption and desorption analysis (DVS); conditions: for crystal form after DVS test (XRPD): before and after DVS test; for hygroscopicity (DVS): moisture range 0% to 90%
Description: The instrument model used for dynamic moisture adsorption and desorption analysis was IGA Sorp (Hidentity Isochema). The samples were measured in a gradient mode with a moisture range of 0% to 90%, wherein the humidity increment of each gradient was 10%.

Cc1ccc(S(=O)(=O)O)cc1.O=C(Nc1ccc(OC(F)(F)Cl)cc1)c1cnc(N2CC[C@@H](F)C2)c(-c2cnccn2)c1
Purity ([1]; 40° C./75% RH, Day 0, HPLC): 97.9% | Purity ([1]; 40° C./75% RH, Day 3, HPLC): 97.9% | Crystal form ([1]; 40° C./75% RH, Day 3, XRPD): Initial crystal form | Purity ([1]; 40° C./75% RH, Day 7, HPLC): 97.9% | Crystal form ([1]; 40° C./75% RH, Day 7, XRPD): Initial crystal form | Purity ([1]; 60° C., Day 0, HPLC): 97.9% | Purity ([1]; 60° C., Day 3, HPLC): 97.9% | Crystal form ([1]; 60° C., Day 3, XRPD): Initial crystal form | Purity ([1]; 60° C., Day 7, HPLC): 97.9% | Crystal form ([1]; 60° C., Day 7, XRPD): Initial crystal form | Solubility ([2]; FaSSIF, 0.5 h): 4.5 µg/mL | pH ([2]; FaSSIF, 0.5 h): 6.38 | Crystal form ([2]; FaSSIF, 0.5 h): Changed | Solubility ([2]; FaSSIF, 2 h): 3.7 µg/mL | pH ([2]; FaSSIF, 2 h): 3.48 | Crystal form ([2]; FaSSIF, 2 h): Changed | Solubility ([2]; FaSSIF, 24 h): 16 µg/mL | pH ([2]; FaSSIF, 24 h): 1.91 | Crystal form ([2]; FaSSIF, 24 h): Changed | Solubility ([2]; FeSSIF, 0.5 h): 100 µg/mL | pH ([2]; FeSSIF, 0.5 h): 4.53 | Crystal form ([2]; FeSSIF, 0.5 h): Changed | Solubility ([2]; FeSSIF, 2 h): 93 µg/mL | pH ([2]; FeSSIF, 2 h): 4.51 | Crystal form ([2]; FeSSIF, 2 h): Changed | Solubility ([2]; FeSSIF, 24 h): 180 µg/mL | pH ([2]; FeSSIF, 24 h): 4.50 | Crystal form ([2]; FeSSIF, 24 h): Changed | Solubility ([2]; SGF, 0.5 h): 97 µg/mL | pH ([2]; SGF, 0.5 h): 1.23 | Crystal form ([2]; SGF, 0.5 h): Initial crystal form | Solubility ([2]; SGF, 2 h): 67 µg/mL | pH ([2]; SGF, 2 h): 1.19 | Crystal form ([2]; SGF, 2 h): Initial crystal form | Solubility ([2]; SGF, 24 h): 45 µg/mL | pH ([2]; SGF, 24 h): 1.18 | Crystal form ([2]; SGF, 24 h): Changed

O=C(Nc1ccc(OC(F)(F)Cl)cc1)c1cnc(N2CC[C@@H](F)C2)c(-c2cnccn2)c1.O=S(=O)(O)c1ccccc1 [(R)-N-(4-(chlorodifluoromethoxy)phenyl)-6-(3-fluoropyrrolidin-1-yl)-5-(pyrazin-2-yl)nicotinamide benzenesulfonate]
water absorption ([3]; 0-60%RH): about 0.4% | water absorption ([3]; 0-90%RH): about 1.5% | crystal form after DVS test (XRPD) [3]: not changed | hygroscopicity (DVS) [3]: slightly hygroscopic

Br.O=C(Nc1ccc(OC(F)(F)Cl)cc1)c1cnc(N2CC[C@@H](F)C2)c(-c2cnccn2)c1 [(R)-N-(4-(chlorodifluoromethoxy)phenyl)-6-(3-fluoropyrrolidin-1-yl)-5-(pyrazin-2-yl)nicotinamide hydrobromide]
water absorption ([3]; 0-80%RH): about 0.67% | crystal form after DVS test (XRPD) [3]: not changed | hygroscopicity (DVS) [3]: slightly hygroscopic

Cl.O=C(Nc1ccc(OC(F)(F)Cl)cc1)c1cnc(N2CC[C@@H](F)C2)c(-c2cnccn2)c1 [(R)-N-(4-(chlorodifluoromethoxy)phenyl)-6-(3-fluoropyrrolidin-1-yl)-5-(pyrazin-2-yl)nicotinamide hydrochloride]
water absorption ([3]; 0-40%RH (relative humidity)): about 0.4% | water absorption ([3]; 0-90%RH): about 2.8% | crystal form after DVS test (XRPD) [3]: not changed | hygroscopicity (DVS) [3]: slightly hygroscopic
